Results published in patent publication US4454145A, “Nicotinates of alkanediols having hypolipidaemic activity and pharmaceutical compositions containing them” (Alfa Farmaceutici S.p.A., priority 1981, dated 1984).
Like-named read-outs stand apart in the source and are kept apart here.

Key:
Type in all cases: in vivo, Male Wistar rats
[1] = system: hypertriglyceridemia caused by fructose; experiment: Test A: decrease of triglycerides content in the serum of rats due to hypertriglyceridemia caused by fructose; details: for change in vivo at 50 mg/kg: Rattus norvegicus, po, 72 h, read-out: ΔTGhematic (percent decrease of the hematic triglycerides); for change in vivo at 50 mg/kg / ΔTGhematic (percent decrease of the hematic triglycerides): 50 mg/Kg/os/die, three days, fructose diet; for ED50, Test diet of fructose: Table 3, oral
Description: (A) Determination of the decrease of triglycerides content in the serum of rats due to hypertriglyceridemia caused by fructose.
Male Wistar rats weighing 260±20 g, normally fed, subdivided in groups of 6 animals each, are used. The test lasts three days: in the first day the animals are normally fed but are kept without drinking water; in the second and third day they receive a 20% (w/v) water solution of fructose instead of water; moreover in the second day they are fed by means of a gastric probe with further 4 ml of 50% (w/v) aqueous solution of fructose. […] The animals are sacrificed undr ethereal anaesthesia 4 hours after the treatment of the third day and the blood is drawn by an intracardiacal injection.
The percent decrease of the hematic triglycerides due to the treatment with the compound to be tested is expressed as ΔTGhematic and is represented by the following formula: [formula] TG=triglycerides.

[2] = system: total cholesterol in rats fed with hypercholesterolemic diet; experiment: Test B: variation of total cholesterol in rats fed with Tensho et al. hypercholesterolemic diet; details: Table 3, oral
Description: (B) Determination of the variation of total cholesterol in rats fed with Greenberg […] diet modified according to Tensho et al.
The rats are subdivided in 3 experimental groups:
(1) control group, normally fed;
(2) diet group, fed only with the Tensho diet;
(3) treated group, fed with the Tensho diet and treated with the compounds to be tested.
At the beginning of the eighth day the rats, fasted since the previous evenging, are sacrified under ethereal anaesthesia by means of an intracardiacal injection. […] The percent decrease of the hematic cholesterol is calculated by means of the following formula: [formula] Ch=cholesterol

[3] = system: hypertriglyceridemia caused by ethanol; experiment: Test C: decrease of triglycerides content in the serum of rats based on hypertriglyceridemia caused by ethanol; details: Table 3, oral, ethanol in drinking water
Description: (C) Determination of the decrease of triglycerides content in the serum of rats based on hypertriglyceridemia caused by ethanol. Male Wistar rats weighing 260±20 g, normally fed, are subdivided in experimental groups of 10 animals each: (1) control group, normally fed; (2) diet group, given drinking water containing 10% (v/v) of ethanol since the second day; (3) treated group, given drinking water containing 10% (v/v) of ethanol and treated with the compounds to be tested from the second day. At the beginning of the fourth day, after 18 hours of fast, the animals are sacrificed under ethereal anaesthesia by means of an intracardiacal injection. The dosage of the triglycerides is carried out on the serum using the enzymatic method described by […]. and […]. […] The percent decrease of the triglycerides has been calculated as above.

SMILES	change in vivo at 50 mg/kg ([1]; Table 2, acids and alcohols)	change in vivo at 50 mg/kg ([1]; Table 1, esters)	also measured
CCC(C)(CO)CCCCCCC(C)(CC)CO (stereo not drawn) [Example 8, 2,9-Diethyl-2,9-dimethyl-1,10-decanediol]	-81.5%		
CC(C)(CCCCCC(C)(C)COC(=O)c1cccnc1)COC(=O)c1cccnc1 [Example 2, 2,2,8,8-Tetramethyl-1,9-nonanediol dinicotinate]		-80%	
CCCCC(C)(CCCCCCC(C)(CCCC)C(=O)O)C(=O)O (stereo not drawn) [Table 2 No. 11]	-65.4%		
CCC(C)(CO)CCCCCCCC(C)(CC)CO (stereo not drawn) [Example 16]	-90%		
CC(C)(CO)CCCCCC(C)(C)CO [Table 2 No. 4, 2,2,8,8-tetramethyl-1,9-nonanediol]			ΔTGhematic (percent decrease of the hematic triglycerides) ([1]; Table 2, acids and alcohols): inactive
CCC(C)(CCCCCCCCC(C)(CC)C(=O)O)C(=O)O (stereo not drawn) [Example 19]	-57.4%		
CCC(C)(CCCCCCC(C)(CC)C(=O)O)C(=O)O (stereo not drawn) [Example 7, 2,9-Diethyl-2,9-dimethyl-1,10-decanedioic acid]	-82.1%		
CCC(C)(CCCCCCCC(C)(CC)COC(=O)c1cccnc1)COC(=O)c1cccnc1 (stereo not drawn) [Table 1 No. 8, 2,10-diethyl-2,10-dimethyl-1,11-undecanediol dinicotinate]		-98%	
CCCC(C)(CCCCCCC(C)(CCC)COC(=O)c1cccnc1)COC(=O)c1cccnc1 (stereo not drawn) [Table 1 No. 5, 2,9-dimethyl-2,9-di-n-propyl-1,10-decanediol dinicotinate]		-90%	
CCC(C)(CO)CCCCCCCCC(C)(CC)CO (stereo not drawn) [Example 20]	-50.1%		
CC(C)(CO)CCCCCCC(C)(C)CO [Table 2 No. 6, 2,2,9,9-tetramethyl-1,10-decanediol]	-94%		
CC(C)(CCCCC(C)(C)COC(=O)c1cccnc1)COC(=O)c1cccnc1 [Example 1, 2,2,7,7-Tetramethyl-1,8-octanediol dinicotinate]		-60%	
CC(C)(CCCCC(C)(C)C(=O)O)C(=O)O [Table 2 No. 1]			ΔTGhematic (percent decrease of the hematic triglycerides) ([1]; Table 2, acids and alcohols): inactive
CCCC(C)(CCCCCCCCC(C)(CCC)C(=O)O)C(=O)O (stereo not drawn) [Example 21]	-64.3%		
CCC(C)(CCCCCCC(C)(CC)COC(=O)c1cccnc1)COC(=O)c1cccnc1 (stereo not drawn) [Table 1 No. 4, 2,9-diethyl-2,9-dimethyl-1,10-decanediol dinicotinate]		-87%	
CC(C)(CCCCCCC(C)(C)C(=O)O)C(=O)O [Table 2 No. 5]	-91.8%		
CCCC(C)(CO)CCCCCCCCC(C)(CO)CCC (stereo not drawn) [Example 22]	-45.2%		
CCCCC(C)(CCCCCCC(C)(CCCC)COC(=O)c1cccnc1)COC(=O)c1cccnc1 (stereo not drawn) [Table 1 No. 6, 2,9-di-n-butyl-2,9-dimethyl-1,10-decanediol dinicotinate]		-85.6%	
CCC(C)(CCCCCCCCC(C)(CC)COC(=O)c1cccnc1)COC(=O)c1cccnc1 (stereo not drawn) [Table 1 No. 10, 2,11-diethyl-2,11-dimethyl-1,12-dodecanediol dinicotinate]		-66%	

SMILES	change in vivo at 50 mg/kg ([1]; Table 2, acids and alcohols)	change in vivo at 50 mg/kg ([1]; Table 1, esters)	also measured
CCCCC(C)(CO)CCCCCCC(C)(CO)CCCC (stereo not drawn) [Table 2 No. 12, 2,9-di-n-butyl-2,9-dimethyl-1,10-decanediol]	-58.7%		
CCCCC(C)(CCCCCCCCC(C)(CCCC)C(=O)O)C(=O)O (stereo not drawn) [Example 23]	-62.4%		
CC(C)(CCCCCCCCC(C)(C)C(=O)O)C(=O)O [Example 17]	-97.5%		
CC(C)(CO)CCCCCCCC(C)(C)CO [Example 14]	-92%		
CCCCC(C)(CCCCCCCCC(C)(CCCC)COC(=O)c1cccnc1)COC(=O)c1cccnc1 (stereo not drawn) [Table 1 No. 12, 2,11-di-n-butyl-2,11-dimethyl-1,12-dodecanediol dinicotinate]		-59.1%	
CCC(C)(CCCCCCCC(C)(CC)C(=O)O)C(=O)O (stereo not drawn) [Example 15]	-97%		
CC(C)(CCCCCCCCC(C)(C)COC(=O)c1cccnc1)COC(=O)c1cccnc1 [Example 5, 2,2,11,11-Tetramethyl-1,12-dodecanediol dinicotinate]		-98%	ED50, Test diet of Tensho [2]: 0.0880 mmole/Kg/os/die; ED50, Test diet of fructose [1]: 0.0026 mmole/Kg/os/die; ED50, Test diet of ethanol [3]: 0.0707 mmole/Kg/os/die
CC(C)(CCCCCCCC(C)(C)C(=O)O)C(=O)O [Example 13]	-91.8%		
O=C(O)c1cccnc1 [Nicotinic acid, reference compound]			ED50, Test diet of Tensho [2]: 0.3020 mmole/Kg/os/die; ED50, Test diet of fructose [1]: 0.4760 mmole/Kg/os/die; ED50, Test diet of ethanol [3]: 0.4800 mmole/Kg/os/die
CC(C)(CO)CCCCCCCCC(C)(C)CO [Example 18]	-93.4%		
CC(C)(CCCCCCCC(C)(C)COC(=O)c1cccnc1)COC(=O)c1cccnc1 [Example 4, 2,2,10,10-Tetramethyl-1,11-undecanediol dinicotinate]		-92.5%	ED50, Test diet of Tensho [2]: 0.0891 mmole/Kg/os/die; ED50, Test diet of fructose [1]: 0.0029 mmole/Kg/os/die; ED50, Test diet of ethanol [3]: 0.0718 mmole/Kg/os/die
CCCC(C)(CCCCCCCCC(C)(CCC)COC(=O)c1cccnc1)COC(=O)c1cccnc1 (stereo not drawn) [Table 1 No. 11, 2,11-dimethyl-2,11-di-n-propyl-1,12-dodecanediol dinicotinate]		-65.8%	
CC(C)(CCCCCCC(C)(C)COC(=O)c1cccnc1)COC(=O)c1cccnc1 [Example 3, 2,2,9,9-Tetramethyl-1,10-decanediol dinicotinate]		-99%	ED50, Test diet of Tensho [2]: 0.0900 mmole/Kg/os/die; ED50, Test diet of fructose [1]: 0.0034 mmole/Kg/os/die; ED50, Test diet of ethanol [3]: 0.0727 mmole/Kg/os/die
CCCC(C)(CCCCCCC(C)(CCC)C(=O)O)C(=O)O (stereo not drawn) [Table 2 No. 9]	-89.5%		
CC(C)(CCCCCC(C)(C)C(=O)O)C(=O)O [Table 2 No. 3]			ΔTGhematic (percent decrease of the hematic triglycerides) ([1]; Table 2, acids and alcohols): inactive
CCCCC(C)(CO)CCCCCCCCC(C)(CO)CCCC (stereo not drawn) [Example 24]	-60.2%		
CCCC(C)(CO)CCCCCCC(C)(CO)CCC (stereo not drawn) [Table 2 No. 10, 2,9-dimethyl-2,9-di-n-propyl-1,10-decanediol]	-88.3%		
CC(C)(CO)CCCCC(C)(C)CO [Table 2 No. 2, 2,2,7,7-tetramethyl-1,8-octanediol]			ΔTGhematic (percent decrease of the hematic triglycerides) ([1]; Table 2, acids and alcohols): inactive
